Measured values taken from ChEMBL document CHEMBL4732195, “Promising hit compounds against resistant trichomoniasis: Synthesis and antiparasitic activity of 3-(ω-aminoalkoxy)-1-benzyl-5-nitroindazoles” (Bioorg Med Chem Lett, 2021).

What was measured:
Trichomonas vaginalis [1] = test: Antimicrobial activity against Trichomonas vaginalis JH31A#4 trophozoites assessed as reduction in parasitic growth incubated for 24 hrs by resazurin dye based fluorescence assay; format: functional, organism-based; conditions: JH31A#4, 24 h
[2] = Selectivity index, ratio of CC50 for African green monkey Vero cells to IC50 for Trichomonas vaginalis JH31A#4 trophozoites; format: toxicity; conditions: read-out: Ratio CC50/IC50
Trichomonas vaginalis [3] = test: Antimicrobial activity against Trichomonas vaginalis IR78 trophozoites assessed as reduction in parasitic growth incubated for 24 hrs by resazurin dye based fluorescence assay; format: functional, organism-based; conditions: IR78, 24 h
[4] = Cytotoxicity against African green monkey Vero cells; format: cell-based; conditions: chlorocebus sabaeus
[5] = Selectivity index, ratio of CC50 for African green monkey Vero cells to IC50 for Trichomonas vaginalis IR78 trophozoites; format: toxicity; conditions: read-out: Ratio CC50/IC50

Compound | IC50 (Trichomonas vaginalis [1]) [µM] | selectivity ratio [2] | IC50 (Trichomonas vaginalis [3]) [µM] | CC50 [4] [µM] | selectivity ratio [5]
CN(C)CCCOc1nn(Cc2ccccc2)c2ccc([N+](=O)[O-])cc12 | 63.7 |  |  |  | 
O=[N+]([O-])c1ccc2c(c1)c(OCCCCCBr)nn2Cc1ccccc1 | > 300 |  |  |  | 
O=C1c2ccccc2C(=O)N1CCOc1nn(Cc2ccccc2)c2ccc([N+](=O)[O-])cc12 | 282 |  |  |  | 
O=[N+]([O-])c1ccc2c(c1)c(OCCN1CCCCC1)nn2Cc1ccccc1 | 265 |  |  |  | 
Cc1ncc([N+](=O)[O-])n1CCO [METRONIDAZOLE] | 1.7 | > 176 | 3 | > 300 | > 100
O=C1c2ccccc2C(=O)N1CCCOc1nn(Cc2ccccc2)c2ccc([N+](=O)[O-])cc12 | 70.3 |  |  |  | 
O=[N+]([O-])c1ccc2c(c1)c(OCCBr)nn2Cc1ccccc1 | > 300 |  |  |  | 
O=[N+]([O-])c1ccc2c(c1)c(OCCCCCN1CCCCC1)nn2Cc1ccccc1 | 69 |  |  |  | 
CNCCOc1nn(Cc2ccccc2)c2ccc([N+](=O)[O-])cc12 | 16.3 | 10.5 | 74.7 | 171 | 2.3
NCCOc1nn(Cc2ccccc2)c2ccc([N+](=O)[O-])cc12 | 10.5 | > 28.6 | 14.3 | > 300 | > 21
CNCCCCCOc1nn(Cc2ccccc2)c2ccc([N+](=O)[O-])cc12 | 2.5 | 9.6 | 0.5 | 24 | 48
NCCCOc1nn(Cc2ccccc2)c2ccc([N+](=O)[O-])cc12 | 19.2 | 2.4 | 1.3 | 46.3 | 35.6
CN(C)CCCCCOc1nn(Cc2ccccc2)c2ccc([N+](=O)[O-])cc12 | 6.5 | 8 | 55.9 | 52.3 | 0.94
CN(C)CCOc1nn(Cc2ccccc2)c2ccc([N+](=O)[O-])cc12 | 207 |  |  |  | 
NCCCCCOc1nn(Cc2ccccc2)c2ccc([N+](=O)[O-])cc12 | 4.2 | 13.7 | 59.1 | 57.7 | 1
O=[N+]([O-])c1ccc2c(c1)c(OCCCN1CCCCC1)nn2Cc1ccccc1 | 104 |  |  |  | 
